Laboratory results published in ChEMBL document CHEMBL5226349, “Novel Antimicrobial 8-Hydroxyquinoline-Based Agents: Current Development, Structure-Activity Relationships, and Perspectives” (J Med Chem, 2021).
Converted amounts (≈) assume the structure as drawn.

Key:
[1] = tested on: Mycobacterium tuberculosis; assay: Antibacterial activity against Mycobacterium tuberculosis; type: functional
[2] = Inhibition of Mycobacterium tuberculosis Zmp1
[3] = tested on: Candida; assay: Antibiofilm activity against Candida; type: functional
[4] = tested on: Chlamydia trachomatis; assay: Bactericidal activity against Chlamydia trachomatis; type: functional
[5] = tested on: Cryptococcus neoformans; assay: Antifungal activity against Cryptococcus neoformans; type: functional
[6] = tested on: Enterococcus faecalis; assay: Antibacterial activity against Enterococcus faecalis; type: functional
[7] = Inhibition of Aeromonas proteolytica aminopeptidase; parameters: species or system Vibrio proteolyticus
[8] = tested on: Aspergillus; assay: Antifungal activity against Aspergillus; type: functional
[9] = tested on: Candida albicans; assay: Antibiofilm activity against Candida albicans; type: functional
[10] = tested on: Salmonella typhimurium; assay: Antibacterial activity against Salmonella typhimurium; type: functional, Salmonella enterica subsp. enterica serovar Typhimurium; settings: Salmonella enterica
[11] = tested on: Candida albicans; assay: Antifungal activity against Candida albicans; type: functional
[12] = tested on: Bacillus subtilis; assay: Antibacterial activity against Bacillus subtilis; type: functional
[13] = tested on: Salmonella sp.; assay: Antibacterial activity against Salmonella sp.; type: functional
[14] = Inhibition of Mycobacterium tuberculosis MetAP1c
[15] = Inhibition of Mycobacterium tuberculosis MetAP1a
[16] = tested on: Aspergillus niger; assay: Antifungal activity against Aspergillus niger; type: functional
[17] = tested on: Bacillus subtilis; assay: Antibacterial activity against Bacillus subtilis ATCC 6633; type: functional
[18] = tested on: Staphylococcus aureus; assay: Antibacterial activity against Staphylococcus aureus ATCC 29213; type: functional
[19] = tested on: Enterococcus faecalis; assay: Antibacterial activity against Enterococcus faecalis ATCC 33186; type: functional
[20] = tested on: Bacillus cereus; assay: Antibacterial activity against Bacillus cereus; type: functional
[21] = tested on: Staphylococcus aureus; assay: Antibacterial activity against Staphylococcus aureus ATCC 25923; type: functional
[22] = tested on: Staphylococcus epidermidis; assay: Antibacterial activity against Staphylococcus epidermidis ATCC 12228; type: functional
[23] = tested on: Arthrodermataceae; assay: […] activity against Arthrodermataceae; type: functional
[24] = biological target: Methionine aminopeptidase 2 (Homo sapiens, UniProt P50579); assay: Inhibition of human MetAP2
[25] = tested on: Stutzerimonas stutzeri; assay: Antibacterial activity against Pseudomonas stutzeri ATCC 17587; type: functional
[26] = tested on: Enterococcus faecalis; assay: Antibacterial activity against Enterococcus faecalis ATCC 29212; type: functional
[27] = tested on: Serratia marcescens; assay: Antibacterial activity against Serratia marcescens ATCC 8100; type: functional
[28] = tested on: Salmonella enteritidis; assay: Antibacterial activity against Salmonella enteritidis; type: functional, Salmonella enterica subsp. enterica serovar Enteritidis; settings: Salmonella enterica
[29] = biological target: Methionine aminopeptidase 1 (Homo sapiens, UniProt P53582); assay: Inhibition of human MetAP1
[30] = tested on: Candida; assay: Antifungal activity against Candida; type: functional
[31] = tested on: Salmonella enterica; assay: Antibacterial activity against Salmonella choleraesuis ATCC 10708; type: functional
[32] = tested on: Shewanella putrefaciens; assay: Antibacterial activity against Shewanella putrefaciens ATCC 8071; type: functional
[33] = tested on: Citrobacter freundii; assay: Antibacterial activity against Citrobacter freundii; type: functional
[34] = tested on: Morganella morganii; assay: Antibacterial activity against Morganella morganii; type: functional
[35] = tested on: Shigella dysenteriae; assay: Antibacterial activity against Shigella dysenteriae; type: functional
[36] = tested on: Aeromonas hydrophila; assay: Antibacterial activity against Aeromonas hydrophila; type: functional
[37] = tested on: Escherichia coli; assay: Antibacterial activity against Escherichia coli ATCC 25922; type: functional
[38] = tested on: Micrococcus luteus; assay: Antibacterial activity against Micrococcus luteus ATCC 10240; type: functional
[39] = tested on: Salmonella typhimurium; assay: Antibacterial activity against Salmonella typhimurium ATCC 13311; type: functional, Salmonella enterica subsp. enterica serovar Typhimurium; settings: Salmonella enterica
[40] = tested on: Klebsiella pneumoniae; assay: Antibacterial activity against Klebsiella pneumoniae ATCC 700603; type: functional
[41] = tested on: Plesiomonas shigelloides; assay: Antibacterial activity against Plesiomonas shigelloides; type: functional
[42] = tested on: Achromobacter xylosoxidans; assay: Antibacterial activity against Achromobacter xylosoxidans ATCC 2706; type: functional
[43] = tested on: Corynebacterium diphtheriae; assay: Antibacterial activity against Corynebacterium diphtheriae NCTC 10356; type: functional
[44] = tested on: Listeria monocytogenes; assay: Antibacterial activity against Listeria monocytogenes; type: functional

Methionine aminopeptidase 2, sequence (P50579 whole entry): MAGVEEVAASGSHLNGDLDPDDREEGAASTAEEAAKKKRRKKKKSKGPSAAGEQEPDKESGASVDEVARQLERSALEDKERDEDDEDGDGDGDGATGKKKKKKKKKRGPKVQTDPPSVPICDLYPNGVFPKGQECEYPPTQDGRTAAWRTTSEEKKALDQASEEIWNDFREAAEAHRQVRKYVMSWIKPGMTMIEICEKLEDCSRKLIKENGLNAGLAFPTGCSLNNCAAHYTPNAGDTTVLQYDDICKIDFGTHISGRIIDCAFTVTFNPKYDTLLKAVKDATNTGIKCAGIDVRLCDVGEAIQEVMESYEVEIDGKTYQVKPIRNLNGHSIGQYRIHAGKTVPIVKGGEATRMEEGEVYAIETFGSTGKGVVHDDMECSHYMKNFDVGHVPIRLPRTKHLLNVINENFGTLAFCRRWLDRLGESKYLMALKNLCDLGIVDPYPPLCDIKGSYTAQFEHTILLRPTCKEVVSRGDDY

With `Cc1ccc2[nH]c(-c3ccccc3)c(C(NNC(=O)c3ccncc3)c3ccc4cccnc4c3O)c2c1` (configuration not stated) the MIC [1] was 100 µM (≈ 50 µg/mL).
`O=C(NCCCc1ccccc1)c1ccc2cccc(O)c2n1` gave an IC50 [2] of over 10 µM.
Work on `O=S(=O)(Nc1ccc(Cl)cc1)c1ccc(O)c2ncccc12` yielded an MIC [3] of 3 µM (≈ 1 µg/mL).
In the case of `OC(COc1ccccc1)COc1cccc2cccnc12` (configuration not stated), the MIC [1] is reported as 42.3 µM (≈ 12.5 µg/mL).
For `O=C(NCCN1OCC(NC(=O)c2ccc3cccc(O)c3n2)C1=O)c1ccc2cccc(O)c2n1` (configuration not stated), the MBC [4] was 5 µM (≈ 2.44 µg/mL).
Compound `Cc1ccc(S(=O)(=O)OCCn2cc(COc3cccc4cccnc34)nn2)cc1` has an MIC80 [5] of 2.36 µM (≈ 1 µg/mL).
`O=C(CSc1nnc(COc2cccc3cccnc23)n1-c1ccccc1)Nc1nc2cc(F)ccc2s1` gave an MIC [6] of 28.8 µM (≈ 15.6 µg/mL).
With `Oc1cccc2ccc(/C=C/c3cccc(F)c3)nc12` the MIC [1] was 13 µM (≈ 3.45 µg/mL).
In the case of `CNS(=O)(=O)c1cc(Cl)c2cccnc2c1O`, the Ki [7] is reported as over 100 µM.
`COc1ccc(CN2CCN(c3nc(Nc4ccc(C#N)cc4)nc(Oc4cccc5cccnc45)n3)CC2)c(OC)c1OC` gave an MIC [8] of 9.8 µM (≈ 5.93 µg/mL).
Work on `CC(=O)Oc1c(Br)cc(Br)c2ccc(C)nc12` yielded an MIC [9] of 12.5 µM (≈ 4.49 µg/mL).
For `O=C(CSc1nnc(COc2cccc3cccnc23)n1-c1ccccc1)Nc1nc2cc([N+](=O)[O-])ccc2s1`, the MIC [6] was 27.4 µM (≈ 15.6 µg/mL) and the MIC [10] was 13.7 µM (≈ 7.8 µg/mL).
`N#Cc1ccc(Nc2nc(Oc3cccc4cccnc34)nc(N3CCN(c4ccccn4)CC3)n2)cc1C(F)(F)F` gave an MIC [1] of 439 µM (≈ 250 µg/mL) and an MIC [11] of 9.8 µM (≈ 5.58 µg/mL).
For `O=C(NNC(c1ccc2cccnc2c1O)c1c(-c2ccccc2)[nH]c2ccccc12)c1ccncc1` (configuration not stated), the MIC [1] was 103 µM (≈ 50 µg/mL).
`O=C(NCCc1ccccc1)c1ccc2cccc(O)c2n1` gave an IC50 [2] of over 10 µM.
Work on `N#Cc1ccc(Nc2nc(Oc3cccc4cccnc34)nc(N3CCN(c4cccc(Cl)c4Cl)CC3)n2)cc1C(F)(F)F` yielded an MIC [1] of 19.6 µM (≈ 12.5 µg/mL) and an MIC [8] of 9.8 µM (≈ 6.25 µg/mL).
`O=C(NNC(c1ccc2cccnc2c1O)c1c(-c2ccccc2)[nH]c2ccc(Cl)cc12)c1ccncc1` (configuration not stated) gave an MIC [1] of 24 µM (≈ 12.5 µg/mL).
`C=CCONC(=O)c1ccc2cccc(O)c2n1` showed an IC50 [2] of 0.123 µM.
`CONC(=O)c1ccc2cccc(O)c2n1` gave an IC50 [2] of 0.115 µM.
`O=C(NNC(c1ccc2cccnc2c1O)c1c[nH]c2ccccc12)c1ccncc1` (configuration not stated) showed an MIC [1] of 122 µM (≈ 50 µg/mL).
`CC1CC(C)CN(c2nc(Nc3ccc(C#N)c(C(F)(F)F)c3)nc(Oc3cccc4cccnc34)n2)C1` (configuration not stated) showed an MIC [1] of 6 µM (≈ 3.12 µg/mL).
With `Cc1nc2[nH]nc(/N=N/c3ccc(O)c4ncccc34)c2c(C)c1Br` the MIC [12] was 19.7 µM (≈ 7.81 µg/mL) and the MIC [13] was 4.91 µM (≈ 1.95 µg/mL).
Work on `CNc1ccc2cccc(O)c2n1` yielded an MIC [1] of 6.4 µM (≈ 1.11 µg/mL).
With `O=C(O)c1cn(C2CC2)c2cc(N3CCN(C(=O)c4ccc5cccc(O)c5n4)CC3)c(F)cc2c1=O` the MBC [4] was 5 µM (≈ 2.51 µg/mL).
`CC(=O)Oc1c(Cl)cc(Cl)c2cccnc12` showed an IC50 [14] of 4.92 µM and an IC50 [15] of 4.87 µM.
For `Cc1ccccc1OCC(O)COc1cccc2cccnc12` (configuration not stated), the MIC [1] was 23.3 µM (≈ 7.21 µg/mL).
In the case of `OC(COc1ccc(Cl)cc1)COc1cccc2cccnc12` (configuration not stated), the MIC [1] is reported as 9.85 µM (≈ 3.25 µg/mL).
Work on `O=C(NCCO[C@@H]1O[C@H](CO)[C@@H](O)[C@H](O)[C@H]1O)c1ccc2cccnc2c1O` yielded an MIC [11] of 10000 µM (≈ 3940 µg/mL).
Work on `O=C(NCCO[C@H]1O[C@H](CO)[C@@H](O)[C@H](O)[C@@H]1O)c1ccc(O)c2ncccc12` yielded an MIC [11] of 5000 µM (≈ 1970 µg/mL).
With `Brc1cccc(COc2cccc3cccnc23)c1` the MIC [16] was 9.94 µM (≈ 3.12 µg/mL).
In the case of `Cc1ccc2cccc(O)c2n1` [8-HYDROXY QUINALDINE], the Ki [7] is reported as over 100 µM.
Work on `O=C(O)c1cn(C2CC2)c2cc(N3CCNCC3)c(F)cc2c1=O` [CIPROFLOXACIN] yielded an MBC [4] of over 50 µM.
`Oc1c(I)cc(Cl)c2cccnc12` [CLIOQUINOL] gave an MIC [1] of 32.7 µM (≈ 10 µg/mL), an MIC [17] of 26.2 µM (≈ 8 µg/mL) and an MIC [18] of 26.2 µM (≈ 8 µg/mL). It also gave an IC50 [14] of 11.2 µM, an MIC [19] of 26.2 µM (≈ 8 µg/mL) and an MIC [20] of 26.2 µM (≈ 8 µg/mL). It also gave an MIC [21] of 26.2 µM (≈ 8 µg/mL), an MIC [22] of 26.2 µM (≈ 8 µg/mL) and an MIC [23] of 0.409 µM (≈ 0.125 µg/mL). The IC50 [24] was 80.4 µM, the MIC [25] was over 26.2 µM and the Ki [7] was over 100 µM. For the same compound, the MIC [26] was 26.2 µM (≈ 8 µg/mL), the MIC [27] was over 26.2 µM and the MIC [28] was over 26.2 µM. It also gave an IC50 [29] of 84.7 µM, an MIC [30] of 0.206 µM (≈ 0.0629 µg/mL) and an MIC [31] of over 26.2 µM. It also gave an MIC [32] of over 26.2 µM, an MIC [33] of over 26.2 µM and an MIC [34] of over 26.2 µM. For the same compound, the MIC [35] was over 26.2 µM, the MIC [36] was over 26.2 µM and the IC50 [15] was 9.25 µM. It also gave an MIC [37] of over 26.2 µM, an MIC [38] of 26.2 µM (≈ 8 µg/mL) and an MIC [39] of over 26.2 µM. For the same compound, the MIC [40] was over 26.2 µM, the MIC [41] was over 26.2 µM and the MIC [42] was over 26.2 µM. It also gave an MIC [43] of 26.2 µM (≈ 8 µg/mL) and an MIC [44] of 26.2 µM (≈ 8 µg/mL).
`Oc1ccc(Cl)c2cccnc12` [CLOXYQUIN] showed a Ki [7] of 0.16 µM.
`O=[N+]([O-])c1ccc(O)c2ncccc12` [NITROXOLINE] gave an IC50 [7] of 29 µM.
`Oc1cccc2cccnc12` [OXYQUINOLINE] showed a Ki [7] of 0.58 µM.
